Patent publication US20220000804A1, “INTRANASAL NANO INDUCER FOR PREVENTING AND TREATING NEURODEGENERATIVE DISEASES AND METHOD THEREOF” (Nasal-Phyto (SZ) Pharmaceutical Technology Co., Ltd., priority 2019, published 2022)

Tests used:
[1] = Dissolution/dispersion in water and organic solvents, Tyndall effect; assay type: physicochemical
Neuroma blast cells N2a = assay: Cytotoxicity test (MTT method); assay type: cell-based; conditions: 24 hours after drug addition
Protocol: A group of Neuroma blast cells N2a that are cultured in a blank medium without hydrophobic drugs (i.e., the curcumin analog M1) defines a negative control group, and a rate of cell viability of the Neuroma blast cells N2a in the negative control group is calculated as 100%. FIG. 8 illustrates the results.

SMILES: COc1ccccc1/C=C/C(=O)/C=C/c1ccccc1OC [curcumin analog M1]
- solubility in tetrahydrofuran ([1]; tetrahydrofuran): soluble in tetrahydrofuran
- dissolution / dispersion in water ([1]; water): difficultly dissolved in water
- cytotoxicity (cell survival rate) (Neuroma blast cells N2a): dose-dependent cytotoxicity
